# Experimental data published in US8273880B2, “Pyrazole compounds with inhibitory activity against ROS kinase” (Korea Institute of Science and Technology, priority 2009, dated 2012).
# “Also recorded” adds a separate entry of the source.
# Experiments:
# Assay type in all cases: biochemical
# PKCa = target: T1, PKCa (Homo sapiens, UniProt P17252); experiment: HotSpot kinase screening over 45 different kinases, single dose 10 μM; conditions: single dose concentration of 10 μM, 10 μM ATP, compared to enzyme activity in DMSO control
# T1 construct: purchased Reaction Biology Corporation
# Method: (§1) Kinase screening was performed using a “HotSpot” assay platform commercially available from Reaction Biology Corporation. For this kinase screening, reaction buffers were based on 20 mM Hepes (pH 7.5), 10 mM MgCl2, 1 mM EGTA, 0.02% Brij35, 0.02 mg/mL BSA, 0.1 mM Na3VO4, 2 mM DTT, and 1% DMSO, with supplementary factors necessary for respective kinase reactions added thereto. In each enzyme reaction, […] of each kinase was used together with a fresh reaction buffer and appropriate supplementary factors. A solution of each compound in DMSO was added in a suitable concentration to the reaction buffer. Kinase reaction started with the introduction of […] (specific activity […]) and continued for 2 hours at room temperature.
# (§2) 1) Screening of Compounds Over 45 Different Kinases
# (§3) Each compound was tested twice at a single dose concentration of 10 μM. […] The reaction was performed with 10 μM ATP.
# YES = target: T2, YES (Homo sapiens, UniProt P07947); experiment: as above; conditions: single dose concentration of 10 μM, 10 μM ATP
# T2 construct: purchased Reaction Biology Corporation
# Method: as §1, §2, §3
# LYN = target: T3, LYN (Homo sapiens, UniProt P07948); experiment: as above; conditions: single dose concentration of 10 μM, 10 μM ATP
# T3 construct: purchased Reaction Biology Corporation
# T3 sequence (P07948 whole entry): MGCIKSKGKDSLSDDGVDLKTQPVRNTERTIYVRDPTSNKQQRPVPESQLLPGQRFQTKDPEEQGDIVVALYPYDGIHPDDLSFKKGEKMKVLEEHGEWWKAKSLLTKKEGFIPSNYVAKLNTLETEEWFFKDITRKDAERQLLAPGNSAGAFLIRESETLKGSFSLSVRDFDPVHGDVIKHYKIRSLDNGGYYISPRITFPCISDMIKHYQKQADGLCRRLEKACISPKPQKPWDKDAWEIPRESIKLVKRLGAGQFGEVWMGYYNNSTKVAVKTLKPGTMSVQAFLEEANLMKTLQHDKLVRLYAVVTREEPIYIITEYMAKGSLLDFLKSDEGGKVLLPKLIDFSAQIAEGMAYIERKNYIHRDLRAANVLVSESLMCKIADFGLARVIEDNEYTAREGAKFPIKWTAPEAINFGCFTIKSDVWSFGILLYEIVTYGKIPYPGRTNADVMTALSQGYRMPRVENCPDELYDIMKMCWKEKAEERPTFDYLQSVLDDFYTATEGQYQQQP
# Method: as §1, §2, §3
# P38a/MAPK14 = target: T4, P38a/MAPK14 (Homo sapiens, UniProt Q16539); experiment: as above; conditions: single dose concentration of 10 μM, 10 μM ATP
# T4 construct: purchased Reaction Biology Corporation
# T4 sequence (Q16539 whole entry): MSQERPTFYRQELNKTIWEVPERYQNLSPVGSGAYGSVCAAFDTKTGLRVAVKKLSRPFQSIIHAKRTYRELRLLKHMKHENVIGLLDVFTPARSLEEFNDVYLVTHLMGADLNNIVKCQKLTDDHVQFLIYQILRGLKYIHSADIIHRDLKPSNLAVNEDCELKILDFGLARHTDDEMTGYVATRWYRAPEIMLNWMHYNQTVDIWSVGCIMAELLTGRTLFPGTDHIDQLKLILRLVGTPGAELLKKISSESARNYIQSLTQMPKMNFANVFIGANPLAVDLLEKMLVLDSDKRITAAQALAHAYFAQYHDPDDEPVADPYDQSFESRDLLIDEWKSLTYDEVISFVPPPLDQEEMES
# Method: as §1, §2, §3
# c-MET = target: T5, c-MET (Homo sapiens, UniProt P08581); experiment: as above; conditions: single dose concentration of 10 μM, 10 μM ATP
# T5 construct: purchased Reaction Biology Corporation
# Method: as §1, §2, §3
# FGR = target: T6, FGR (Homo sapiens, UniProt P09769); experiment: as above; conditions: single dose concentration of 10 μM, 10 μM ATP
# T6 construct: purchased Reaction Biology Corporation
# Method: as §1, §2, §3
# CHK1 = target: T7, CHK1 (Homo sapiens, UniProt O14757); experiment: as above; conditions: single dose concentration of 10 μM, 10 μM ATP
# T7 construct: purchased Reaction Biology Corporation
# Method: as §1, §2, §3
# FYN = target: T8, FYN (Homo sapiens, UniProt P06241); experiment: as above; conditions: single dose concentration of 10 μM, 10 μM ATP
# T8 construct: purchased Reaction Biology Corporation
# T8 sequence (P06241 whole entry): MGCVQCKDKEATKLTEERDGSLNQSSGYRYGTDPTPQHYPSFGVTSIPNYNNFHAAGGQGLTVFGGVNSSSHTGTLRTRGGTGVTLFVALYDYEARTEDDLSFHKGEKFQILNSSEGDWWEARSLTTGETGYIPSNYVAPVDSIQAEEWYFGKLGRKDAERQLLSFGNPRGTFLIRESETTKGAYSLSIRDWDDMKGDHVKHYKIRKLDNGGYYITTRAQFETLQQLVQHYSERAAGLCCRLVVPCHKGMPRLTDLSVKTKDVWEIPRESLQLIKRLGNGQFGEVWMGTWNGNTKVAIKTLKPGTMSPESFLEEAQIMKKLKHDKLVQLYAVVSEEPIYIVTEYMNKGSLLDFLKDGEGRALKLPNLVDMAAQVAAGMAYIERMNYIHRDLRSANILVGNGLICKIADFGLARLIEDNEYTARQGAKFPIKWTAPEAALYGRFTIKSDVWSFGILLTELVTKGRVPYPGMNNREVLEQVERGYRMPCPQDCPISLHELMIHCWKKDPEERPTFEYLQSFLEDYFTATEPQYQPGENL
# Method: as §1, §2, §3
# SYK = target: T9, SYK (Homo sapiens, UniProt P43405); experiment: as above; conditions: single dose concentration of 10 μM, 10 μM ATP
# T9 construct: purchased Reaction Biology Corporation
# Method: as §1, §2, §3
# DNA-PK = target: T10, DNA-PK (Homo sapiens, UniProt P78527); experiment: as above; conditions: single dose concentration of 10 μM, 10 μM ATP
# T10 construct: purchased Reaction Biology Corporation
# Method: as §1, §2, §3
# p70S6K = target: T11, p70S6K (Homo sapiens, UniProt P23443); experiment: as above; conditions: single dose concentration of 10 μM, 10 μM ATP
# T11 construct: purchased Reaction Biology Corporation
# Method: as §1, §2, §3
# EGFR = target: T12, EGFR (Homo sapiens, UniProt P00533); experiment: as above; conditions: single dose concentration of 10 μM, 10 μM ATP
# T12 construct: purchased Reaction Biology Corporation
# Method: as §1, §2, §3
# TIE2/TEK = target: T13, TIE2/TEK (Homo sapiens, UniProt Q02763); experiment: as above; conditions: single dose concentration of 10 μM, 10 μM ATP
# T13 construct: purchased Reaction Biology Corporation
# T13 sequence (Q02763 23-1124): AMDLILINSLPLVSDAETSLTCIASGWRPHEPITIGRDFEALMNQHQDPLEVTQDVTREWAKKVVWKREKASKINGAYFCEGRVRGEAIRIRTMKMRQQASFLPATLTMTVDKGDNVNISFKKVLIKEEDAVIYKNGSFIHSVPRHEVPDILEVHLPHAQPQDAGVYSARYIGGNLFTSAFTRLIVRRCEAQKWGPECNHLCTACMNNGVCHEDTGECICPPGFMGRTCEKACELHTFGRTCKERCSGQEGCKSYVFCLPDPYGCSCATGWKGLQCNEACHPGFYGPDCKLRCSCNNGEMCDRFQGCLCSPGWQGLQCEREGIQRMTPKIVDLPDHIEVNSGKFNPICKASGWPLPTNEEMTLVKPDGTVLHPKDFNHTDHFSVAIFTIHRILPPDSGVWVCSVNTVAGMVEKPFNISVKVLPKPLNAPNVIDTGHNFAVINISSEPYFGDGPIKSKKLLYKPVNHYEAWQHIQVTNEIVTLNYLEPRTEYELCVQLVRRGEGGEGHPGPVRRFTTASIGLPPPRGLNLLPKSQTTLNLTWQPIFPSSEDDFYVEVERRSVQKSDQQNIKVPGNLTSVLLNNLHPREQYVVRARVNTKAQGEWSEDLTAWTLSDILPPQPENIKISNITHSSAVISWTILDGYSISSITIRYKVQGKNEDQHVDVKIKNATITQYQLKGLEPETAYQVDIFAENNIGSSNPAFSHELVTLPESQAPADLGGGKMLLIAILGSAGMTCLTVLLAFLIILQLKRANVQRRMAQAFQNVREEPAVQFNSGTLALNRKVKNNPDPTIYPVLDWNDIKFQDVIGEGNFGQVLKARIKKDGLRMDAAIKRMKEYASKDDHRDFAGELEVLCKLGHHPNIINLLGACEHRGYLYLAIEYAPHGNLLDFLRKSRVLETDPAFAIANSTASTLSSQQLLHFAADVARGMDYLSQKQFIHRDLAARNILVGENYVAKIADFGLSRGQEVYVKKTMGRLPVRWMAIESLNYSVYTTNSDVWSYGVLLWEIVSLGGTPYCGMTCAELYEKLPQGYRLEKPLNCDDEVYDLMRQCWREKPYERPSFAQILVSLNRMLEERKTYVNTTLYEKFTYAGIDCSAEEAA
# Method: as §1, §2, §3
# c-Kit = target: T14, c-Kit (Homo sapiens, UniProt P10721); experiment: as above; conditions: single dose concentration of 10 μM, 10 μM ATP
# T14 construct: purchased Reaction Biology Corporation
# T14 sequence (P10721 26-976): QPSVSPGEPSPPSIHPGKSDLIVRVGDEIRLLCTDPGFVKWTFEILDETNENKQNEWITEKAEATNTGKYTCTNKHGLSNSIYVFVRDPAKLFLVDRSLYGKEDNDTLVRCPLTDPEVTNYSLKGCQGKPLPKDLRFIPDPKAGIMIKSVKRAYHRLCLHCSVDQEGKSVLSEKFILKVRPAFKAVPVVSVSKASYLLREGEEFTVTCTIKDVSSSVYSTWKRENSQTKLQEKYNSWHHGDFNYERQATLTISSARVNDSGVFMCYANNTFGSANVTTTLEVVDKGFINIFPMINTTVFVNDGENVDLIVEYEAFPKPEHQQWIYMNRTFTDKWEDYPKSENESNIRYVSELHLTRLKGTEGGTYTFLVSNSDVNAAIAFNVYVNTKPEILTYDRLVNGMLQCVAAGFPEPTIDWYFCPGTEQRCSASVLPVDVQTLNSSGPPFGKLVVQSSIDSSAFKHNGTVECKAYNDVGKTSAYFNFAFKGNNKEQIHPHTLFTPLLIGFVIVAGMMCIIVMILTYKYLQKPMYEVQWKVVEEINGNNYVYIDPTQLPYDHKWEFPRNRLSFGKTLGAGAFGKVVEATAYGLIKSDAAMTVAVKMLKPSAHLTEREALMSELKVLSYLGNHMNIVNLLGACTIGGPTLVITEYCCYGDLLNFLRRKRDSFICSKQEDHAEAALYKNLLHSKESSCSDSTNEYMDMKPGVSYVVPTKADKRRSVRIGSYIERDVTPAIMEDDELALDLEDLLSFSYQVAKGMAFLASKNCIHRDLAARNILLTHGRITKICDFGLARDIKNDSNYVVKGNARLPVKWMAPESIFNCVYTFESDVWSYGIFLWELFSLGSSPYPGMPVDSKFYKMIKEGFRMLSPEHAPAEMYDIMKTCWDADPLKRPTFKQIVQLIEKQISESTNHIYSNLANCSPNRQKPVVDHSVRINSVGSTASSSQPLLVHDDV
# Method: as §1, §2, §3
# MEK1 = target: T15, MEK1 (Homo sapiens, UniProt Q02750); experiment: as above; conditions: single dose concentration of 10 μM, 10 μM ATP
# T15 construct: purchased Reaction Biology Corporation
# Method: as §1, §2, §3
# Aurora A = target: T16, Aurora A (Homo sapiens, UniProt O14965); experiment: as above; conditions: single dose concentration of 10 μM, 10 μM ATP
# T16 construct: purchased Reaction Biology Corporation
# T16 sequence (O14965 whole entry): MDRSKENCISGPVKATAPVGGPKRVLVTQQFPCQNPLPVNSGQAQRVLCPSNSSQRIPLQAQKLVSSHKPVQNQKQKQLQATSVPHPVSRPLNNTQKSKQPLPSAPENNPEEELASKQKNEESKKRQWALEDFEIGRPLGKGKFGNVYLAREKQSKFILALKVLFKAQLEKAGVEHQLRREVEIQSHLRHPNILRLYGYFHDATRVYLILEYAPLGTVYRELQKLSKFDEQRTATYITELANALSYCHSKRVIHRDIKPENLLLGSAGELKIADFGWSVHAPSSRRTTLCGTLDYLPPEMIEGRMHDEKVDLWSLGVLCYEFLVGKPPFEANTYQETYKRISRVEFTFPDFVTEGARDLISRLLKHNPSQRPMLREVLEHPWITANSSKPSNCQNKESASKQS
# Method: as §1, §2, §3
# MUSK = target: T17, MUSK (Homo sapiens, UniProt O15146); experiment: as above; conditions: single dose concentration of 10 μM, 10 μM ATP
# T17 construct: purchased Reaction Biology Corporation
# Method: as §1, §2, §3
# HIPK1 = target: T18, HIPK1 (Homo sapiens, UniProt Q86Z02); experiment: as above; conditions: single dose concentration of 10 μM, 10 μM ATP
# T18 construct: purchased Reaction Biology Corporation
# Method: as §1, §2, §3
# IR = target: T19, IR (Homo sapiens, UniProt P06213); experiment: as above; conditions: single dose concentration of 10 μM, 10 μM ATP
# T19 construct: purchased Reaction Biology Corporation
# Method: as §1, §2, §3
# FAK/PTK2 = target: T20, FAK/PTK2 (Homo sapiens, UniProt Q05397); experiment: as above; conditions: single dose concentration of 10 μM, 10 μM ATP
# T20 construct: purchased Reaction Biology Corporation
# T20 sequence (Q05397 whole entry): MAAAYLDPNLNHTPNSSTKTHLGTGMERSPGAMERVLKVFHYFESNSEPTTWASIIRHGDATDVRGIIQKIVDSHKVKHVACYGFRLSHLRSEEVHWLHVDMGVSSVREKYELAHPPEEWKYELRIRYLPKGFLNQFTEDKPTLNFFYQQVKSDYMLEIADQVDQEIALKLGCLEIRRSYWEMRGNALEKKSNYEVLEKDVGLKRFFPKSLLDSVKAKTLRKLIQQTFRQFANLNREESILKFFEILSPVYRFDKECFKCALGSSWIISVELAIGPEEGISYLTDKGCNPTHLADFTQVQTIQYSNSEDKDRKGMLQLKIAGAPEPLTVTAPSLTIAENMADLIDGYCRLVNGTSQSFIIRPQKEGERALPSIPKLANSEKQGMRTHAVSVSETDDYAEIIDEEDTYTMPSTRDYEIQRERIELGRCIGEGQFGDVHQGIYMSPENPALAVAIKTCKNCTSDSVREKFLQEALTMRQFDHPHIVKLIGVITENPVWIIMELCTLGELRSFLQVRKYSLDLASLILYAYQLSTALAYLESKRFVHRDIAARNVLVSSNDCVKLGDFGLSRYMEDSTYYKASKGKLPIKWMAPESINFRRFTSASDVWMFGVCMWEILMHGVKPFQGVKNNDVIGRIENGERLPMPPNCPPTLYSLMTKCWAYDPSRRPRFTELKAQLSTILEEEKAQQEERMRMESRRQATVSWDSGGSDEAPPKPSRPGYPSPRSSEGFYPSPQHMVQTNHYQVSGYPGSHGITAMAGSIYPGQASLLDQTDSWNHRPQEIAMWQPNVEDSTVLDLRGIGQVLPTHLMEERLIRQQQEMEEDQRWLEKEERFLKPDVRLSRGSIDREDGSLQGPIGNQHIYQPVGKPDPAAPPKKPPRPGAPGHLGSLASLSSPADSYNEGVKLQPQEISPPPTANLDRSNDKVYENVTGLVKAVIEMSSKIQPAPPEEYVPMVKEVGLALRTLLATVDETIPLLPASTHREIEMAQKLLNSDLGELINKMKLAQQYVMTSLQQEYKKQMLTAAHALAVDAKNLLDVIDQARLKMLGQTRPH
# Method: as §1, §2, §3
# DAPK1 = target: T21, DAPK1 (Homo sapiens, UniProt P53355); experiment: as above; conditions: single dose concentration of 10 μM, 10 μM ATP
# T21 construct: purchased Reaction Biology Corporation
# Method: as §1, §2, §3
# PLK1 = target: T22, PLK1 (Homo sapiens, UniProt P53350); experiment: as above; conditions: single dose concentration of 10 μM, 10 μM ATP
# T22 construct: purchased Reaction Biology Corporation
# Method: as §1, §2, §3
# JNK1a1 = target: T23, JNK1a1 (Homo sapiens, UniProt P45983); experiment: as above; conditions: single dose concentration of 10 μM, 10 μM ATP
# T23 construct: purchased Reaction Biology Corporation
# Method: as §1, §2, §3
# 45 different kinases = experiment: Kinase selectivity from screening over 45 different kinases
# Method: as §1, §2, §3
# [1] = compared to enzyme activity in DMSO control
smiles,measurement,setting,value
"Cc1cc(O)cc(-c2nn(CC#N)cc2-c2cc(NC[C@H](C)O)nc(-c3cccnc3)n2)c1 [Example 10, [4-[6-(2(S)-hydroxypropylamino)-2-pyridin-3-yl-pyrimidin-4-yl]-3-(3-hydroxy-5-methylphenyl)-pyrazol-1-yl]acetonitrile]",activity at 10 µM,PKCa,90.8%
same,inhibition at 10 µM,YES,-2.59%
same,activity at 10 µM,YES; [1],103%
same,inhibition at 10 µM,LYN,-1.45%
same,activity at 10 µM,LYN; [1],101%
same,inhibition at 10 µM,P38a/MAPK14,5.27%
same,activity at 10 µM,P38a/MAPK14; [1],94.7%
same,inhibition at 10 µM,c-MET,5.82%
same,activity at 10 µM,c-MET; [1],94.2%
same,inhibition at 10 µM,FGR,3.34%
same,activity at 10 µM,FGR; [1],96.7%
same,inhibition at 10 µM,CHK1,2.36%
same,activity at 10 µM,CHK1; [1],97.6%
same,inhibition at 10 µM,FYN,-7.86%
same,activity at 10 µM,FYN; [1],108%
same,inhibition at 10 µM,SYK,8.23%
same,activity at 10 µM,SYK; [1],91.8%
same,inhibition at 10 µM,DNA-PK,6.56%
same,activity at 10 µM,DNA-PK; [1],93.4%
same,inhibition at 10 µM,p70S6K,5.79%
same,activity at 10 µM,p70S6K; [1],94.2%
same,inhibition at 10 µM,EGFR,-2.23%
same,activity at 10 µM,EGFR; [1],102%
same,inhibition at 10 µM,TIE2/TEK,8.17%
same,activity at 10 µM,TIE2/TEK; [1],91.8%
same,inhibition at 10 µM,c-Kit,2.85%
same,activity at 10 µM,c-Kit; [1],97.2%
same,inhibition at 10 µM,MEK1,-6.97%
same,activity at 10 µM,MEK1; [1],107%
same,inhibition at 10 µM,Aurora A,21.8%
same,activity at 10 µM,Aurora A; [1],78.2%
same,inhibition at 10 µM,MUSK,-0.42%
same,activity at 10 µM,MUSK; [1],100%
same,inhibition at 10 µM,HIPK1,-3.43%
same,activity at 10 µM,HIPK1; [1],103%
same,inhibition at 10 µM,IR,7.01%
same,activity at 10 µM,IR; [1],93%
same,inhibition at 10 µM,FAK/PTK2,3.43%
same,activity at 10 µM,FAK/PTK2; [1],96.6%
same,inhibition at 10 µM,DAPK1,-1.17%
same,activity at 10 µM,DAPK1; [1],101%
same,inhibition at 10 µM,PLK1,5.85%
same,activity at 10 µM,PLK1; [1],94.2%
same,inhibition at 10 µM,JNK1a1,3.83%
same,activity at 10 µM,JNK1a1; [1],96.2%
same,Notes (selectivity for ROS),45 different kinases,"no inhibitory activity against almost all of the tested kinases, except for ROS kinase; also recorded: Selective for ROS"
